Where a SMILES comes first, the peptide text is derived from it. The star is where a group is joined. Cbz = O=C(OCc1ccccc1)*; CH2F = FC*
Experiments:
[1] = system: nerve cells differentiated from iPS cells; assay: Prediction model MDL score of nerve cell images versus Z-VAD-FMK concentration; format: cell-based, human; details: FIG. 14, higher score = greater probability that the cell will survive
Excerpt: Activated caspase-3 in apoptotic nerve cells was detected by using a fluorogenic substrate consisting of a four-amino acid peptide DEVD (SEQ ID NO: 1) bound to a nucleic acid binding dye (product name “CellEvent Caspase-3/7 Green Detection Reagent”, Thermo Fisher Scientific Inc.). Since the DEVD peptides inhibit the binding of fluorescent dyes to DNA, the above-described fluorogenic substrate is essentially non-fluorescent. However, when activated caspase-3 in dead cells cleaves the DEVD peptide, a fluorescent dye binds to the DNA to cause fluorescence, which can be detected using a standard FITC green filter set of a standard time lapse imaging system (product name “Incucyte ZOOM”, Essen Bioscience, Ltd.) (exposure time 400 ms). Images were photographed over time every 6 hours after drug administration.
The original size of the single-well image captured by using the time lapse imaging system (product name “Incucyte ZOOM”, Essen Bioscience, Ltd.) was 1,392×1,038 pixels, and four images were cut out from this image and extracted as the cropped image IMGC. The original image was divided evenly into four regions, and square images were taken out from the center of each region. The size of the trimmed cropped image IMGC was selected from 128×128, 256×256, 512×512, 768×768, and 1,020×1,020 in width×height. […]

[2] = system: nerve cells differentiated from iPS cells; assay: Single cell analysis (single cell RNA sequence, UMAP clustering) of nerve cells with Z-VAD-FMK; format: cell-based, human
Description: FIG. 15 is a view showing the schematics of a proposed method. As illustrated in the drawing, Z-VAD-FMK is added to nerve cells and changes in gene expression of individual cells are observed before cell death occurs (before caspase-3 activation occurs) (single cell RNA sequence=WHAT in the drawing). At the same time, the images are acquired, and the CNN-based prediction model MDL is used to check where the changes are occurring (WHERE in the drawing). In this manner, a method for identifying the molecules, where and what is occurring before cell death, is proposed.
Single cell analysis was performed using the above-described proposed method. FIG. 16 is a view illustrating an example of clustering results of cells. While changing the concentration of Z-VAD-FMK added to the nerve cells to 0 [μM], 0.2 [μM], and 25 [μM], the cell population was separated into a total of 15 types of clusters ranging from 0 to 14 by using a visualization method (one type of dimensional compression method) which is called UMAP (uMAP).
FIG. 22 is a view illustrating a relationship between the Z-VAD-FMK concentration and the cluster size. […] As a result, the cluster 12 was identified as a cluster that satisfies the conditions.

COC(=O)C[C@H](NC(=O)[C@H](C)NC(=O)[C@@H](NC(=O)OCc1ccccc1)C(C)C)C(=O)CF [Z-VAD-FMK] (Cbz-Val-Ala-Asp(OMe)-CH2F)
score of the prediction model MDL (probabilistic value related to the life or death of cells) [1]: the higher the Z-VAD-FMK concentration, the higher the score | effect of Z-VAD-FMK concentration on cluster shapes of UMAP expanded cell populations ([2]; 0, 0.2 and 25 μM Z-VAD-FMK, 15 clusters (0 to 14), FIGS. 16 to 21): no effect on most of the cell populations | cluster size (number of cells in cluster 12, caspase-3 activated) ([2]; cluster 12, with addition of Z-VAD-FMK, FIG. 22): the number of cells in its own cluster decreased with the addition of Z-VAD-FMK
